Measurements: patent US20110165279A1, “SWEET POTATO TRYPSIN INHIBITOR AND METHODS FOR TREATING INFLAMMATION AND HYPERALGESIA” (Academia Sinica Office of Public Affairs (Technology …, priority 2010, published 2011)

Experiments:
[1] = tested on: mouse hind footpad; assay: Histological examination of mouse hind footpad after carrageenan (H&E, neutrophil counts); assay type: in vivo; conditions: biopsies 5 hours after Carr, IbTI 40 mg/kg, indomethacin 10 mg/kg
Method: For histological examination, biopsies of paws were taken 5 hours after Carr injection into the plantar side of right hind paws. The tissue slices were fixed in solution with 1.85% formaldehyde and 1% acetic acid for 1 week at room temperature, then dehydrated by graded ethanol and embedded in Paraffin (Sherwood Medical, St. Louis, Mo., USA). Sections (thickness 5 μm) were deparaffinized with xylene and stained with hematoxylin and eosin. All samples were observed and photographed with BH2 Olympus microscopy (Japan). Every 3-5 tissue slices were randomly chosen from control, Carr, Indo and IbTI-treated (40 mg/kg) groups. The numbers of neutrophils were counted in each scope (400×) and average counts from 5 scopes of each tissue slice were calculated.

[2] = tested on: hind paw edema induced by λ-carrageenan in mice; assay: λ-carrageenan-induced hind paw edema test in mice; assay type: in vivo, mouse; conditions: 10 mg/kg i.p., 3, 4 and 5 hours after Carr injection; p<0.01 or p<0.001
Method: Male ICR mice (18-25 g) were obtained from the BioLASCO Taiwan Co., Ltd. The animals were kept in plexiglass cages under a constant temperature of 22±1° C., relative humidity 55±5%, and a light regime of 12 hours dark/12 hour light for at least 2 weeks before the experiment. They were given food and water ad libitum. All experimental procedures were performed according to the NIH Guide for the Care and Use of Laboratory Animals. The placebo groups were given subcutaneous 0.1 ml/10 g saline using a bent blunted 27-gauge needle connected to a 1 ml syringe. All tests were conducted under the guidelines of the International Association for the Study of Pain [Zimmermann, M., Ethical guidelines for investigations of experimental pain in conscious animals. Pain. 1983, 16, 109-110].
Male ICR mice (eight per group), 18 g to 25 g, were fasted for 24 hours before the experiment with free access to water. […] Paw volume was measured immediately after Carr injection and at 1, 2, 3, 4 and 5 hours intervals after the administration of the edematogenic agent using a plethysmometer (model 7159, Ugo Basile, Varese, Italy). The degree of swelling induced was evaluated by the ratio a/b, where a is the volume of the right hind paw after Carr treatment, and b is the volume of the right hind paw before Carr treatment.

Question: With `COc1ccc2c(c1)c(CC(=O)O)c(C)n2C(=O)c1ccc(Cl)cc1` [Indomethacin, indomethacin] as the compound, how does the “histological appearance of hind footpad vs Carr only” value [1] read?
Answer: significantly reduced the level of hemorrhage, edema and inflammatory cell infiltration

Question: And the “neutrophil numbers in paw tissue vs Carr-treated group” value ([1]; p<0.01)?
Answer: significantly decreased the number of inflammatory neutrophil infiltration

Question: What about the paw edema [2] of the same compound?
Answer: significantly decreased paw edema
